Assay results published in US7972831B2, “Lipases from thermophilic anaerobes” (Novozymes A/S, priority 2004, dated 2011).

How the values were obtained:
[1] = test system: lipase of SEQ ID NO: 2; test: Positional specificity towards monoglycerides; format: biochemical, Thermoanaerobacter thermohydrosulfuricus
[2] = test system: lipase; test: Effect of detergent ingredients on lipase activity; format: biochemical; settings: 1.5 hours at 30° C., up to 10% by weight of compound
Experimental: The activity of the lipase was tested after incubation for 1.5 hours at 30° C. with up to 10% by weight of various compounds.

[3] = Specific activity of purified lipase; format: biochemical, Thermoanaerobacter thermohydrosulfuricus; settings: after three-step purification
Experimental: The lipase solution obtained after hydrophobic interaction chromatography was loaded on a hydroxilapatite column used as a second purification step. The lipase was eluted at the approximate mid-point of the sodium phosphate buffer gradient (220 to 250 mM range). The active fractions were further subjected to gel filtration column. […] The enzyme activity was present in the second major peak. The lipase was purified approximately 133.5-fold over the crude extract with a 10.2% yield. The specific activity of the purified lipase was 12.3 U/mg.

[4] = Effect of pH on lipase activity; format: biochemical

monopalmitoyl glycerols
hydrolysis of 1-positional ester bond lower in comparison with 2-positional ester bond [1]: less than 2 fold

Triton X-100
effect on activity after incubation [2]: decreased the activity

CCCCCCCC/C=C\CCCCCCCC(=O)OCCOCC(OCCO)C1OCC(OCCO)C1OCCO (stereo not drawn) [Tween-80]
effect on activity after incubation [2]: decreased the activity

B1: lipase of SEQ ID NO: 2: polypeptide having lipase activity from Thermoanaerobacter thermohydrosulfuricus DSM 7021 and T. brockii subsp. brockii DSM 1457 (protein, listed as Thermoanaerobacter thermohydrosulfuricus)
chain: MQKAVEITYNGKTLRGMMHLPDDVKGKVPMVIMFHGFTGNKVESHFIFVKMSRALEKVGIGSVRFDFYGSGESDGDFSEMTFSSELEDARQILKFVKEQPTTDPERIGLLGLSMGGAIAGIVAREYKDEIKALVLWAPAFNMPELIMNESVKQYGAIMEQLGFVDIGGHKLSKDFVEDISKLNIFELSKGYDKKVLIVHGTNDEAVEYKVSDRILKEVYGDNATRVTIENADHTFKSLEWEKKAIEESVEFFKKELLKG
specific activity of the purified lipase [3]: 12.3 U/mg
activity at pH 6.5-9.0 [4]: > 80%

B2: lipase of SEQ ID NO: 4: polypeptide having lipase activity from Caldanaerobacter subterraneus subsp. tengcongensis DSM 15242 (protein, listed as Thermoanaerobacter tencongensis)
chain: VQKAVEFTYNRKTLRGMLHLPEGVSEKVPMVVMFHGFTGNKVESHFIFVKMSRALEKVGIGSVRFDFYGSGESDGDFSEMTFSGELEDARQILDFVKRQPTTDVERIGLLGLSMGGAIAGIIARERKEDVKALVLWAPAFNMPELIMGEGARQYGAIMESLGYVDIGGLKLDRAFVEDIAKFNIFELSRGYEGKVLIVHGTNDEAVEYRISDRILQEVYGDNAFRVTIEGADHTFKNLEWERKAIEESVKFFERELKG
activity at pH 6.5-9.0 [4]: > 60%
